{"source": "patent EP0429333B1", "about": "“Process for producing oxazopyrroloquinolines, novel oxazopyrroloquinolines, and use of oxazopyrroloquinolines” (priority 1989, dated 1991)", "key": {"kidney": {"test_system": "kidney", "assay": "Toxicity to kidney determined by blood examination", "assay_type": "in vivo, mice", "details": "serum", "outline": "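One day after dosing, mice fasted 18 h with water only, then blood taken. Serum glucose, urea nitrogen and creatinine measured by dry-chemistry slides; values are means of eight mice.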"}, "[1]": {"test_system": "carbon tetrachloride (CCl4)-induced liver diseases", "assay": "Pharmacological activity on carbon tetrachloride-induced liver diseases", "assay_type": "in vivo, SD rats", "details": "CCl4 1 ml/kg rat; for GPT: Table 26: CCl4 only 1521, no administration 24; for Total bilirubin: Table 26: CCl4 only 1.5, no administration 0.9; for GOT: Table 26: CCl4 only 3266, no administration 140", "procedure": "Twentyfive SD rats (male, 7 weeks old, body weight: about 220 g; supplied by Japan Charles River Co.) were divided to five groups (A-E) each consisting of five rats.\nAll rats were fasted for 16 hours and 1.1 ml of solutions containing 0.4 mg/ml, 1.0 mg/ml and 2.0 mg/ml of OPQ were intraperitoneally administered to the rats of groups C, D and E, respectively and furthermore, after 40 minutes, OPQ in the same dosage as above was intraperitoneally administered, respectively. In these cases, OPQ was used as a solution in physiological saline. To the rats of group B was intraperitoneally administered 1.1 ml of physiological saline in place of the OPQ solution.\nFurthermore, after 20 minutes, 2.2 ml of 10 % carbon tetrachloride solution (in olive oil) was administered to stomach of the rats of groups B-E. Neither OPQ nor carbon tetrachloride was administered to the rats of group A.\nAfter 24 hours from administration of carbon tetrachloride, blood was collected from abdominal aorta and serum was obtained by centrifugal separation.\nGPT, GOT and amount of total bilirubin were measured by clinical examination reagent (trademark: FUJI Dry Chemslide manufactured by Fuji Photo Film Co., Ltd.). The results are shown in Table 26 by average value of five rats."}, "T cell": {"test_system": "T cell", "assay": "Test on T cell blast transformation reaction (2), compound added to spleen cell culture", "assay_type": "cell-based, C3H/He mice", "details": "for Relative activity (%): Concanavalin A 1.0 µg/ml, without compound = 100", "procedure": "Cells of spleen were obtained in the same manner as in Example 38 except that OPQ was not administered using five C3H/He mice (male, 7 weeks old, average body weight of 20 g, supplied by Japan Charles Liver Co.).\nThen, the cells were suspended in RPMI medium at 4 x 10^6 cells/ml and the suspension was put in a flat bottom microplate of 96 holes. Culture was carried out in the air containing 5 % of CO2 at 37°C using 1.0 µg/ml of concanavalin A as mitogen with addition of 0.5 or 2.0 µg/ml of OPQ. After 63 hours from starting of culture, ^3H-thymidine was added at 2.5 µCi/ml and culture was carried out for further 9 hours. Thereafter, cells were gathered on a glass fiber filter by cell harvester and ^3H on the filter was measured by a liquid scintillation counter.\nAs control, same four cultures were conducted under respective conditions without adding concanavalin A or OPQ. Values in the table are average values of intake amount (cpm) of ^3H in culture under four same conditions. Activity acceleration effect of OPQ was not recognized when concanavalin A was not added, but activity acceleration effect of OPQ was recognized when concanavalin A was added.\nIn Examples 36 - 40, macrophage activity was examined according to chemotaxis of peritoneal macrophage (literature 1) and activity of T cell and that of B cell were examined according to blast transformation reaction using concanavalin A and lipopolysaccharide, (LPS) as mitogen (literature 2). Literature 1: \"Function of Macrophage and Method of Measurement of Function\", pages 61-65 1985), edited by Educational Committee of Japan Bacteriological Society and published from Saikon Shuppan Co.) Literature 2: \"New Method of Searching of Function of Lymphocytes\", pages 350-355 (1987) edited by Junichi Yada and Michio Fujiwara and published from Chugai Igaku Co."}, "[2]": {"biological_target": "aldose reductase of kidney (Canis lupus familiaris, UniProt A0A8I3P2L6)", "assay": "Inhibitory effect on aldose reductase of kidney", "assay_type": "biochemical, dog", "details": "read-out: Degree of inhibition for aldose reductase (%)", "outline": "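Aldose reductase was purified from dog kidney medulla. Activity was measured as NADPH consumption (A340 decrease) with DL-glyceraldehyde substrate and 3mM NADPH stock, in 0.1M phosphate buffer pH 6.2 at 25°C. One unit consumes 1 µmole NADPH/min.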"}, "[3]": {"details": "2 mg/kg rat twice intraperitoneally"}, "[4]": {"details": "5 mg/kg rat twice intraperitoneally"}, "[5]": {"details": "10 mg/kg rat twice intraperitoneally"}}}
{"smiles": "O=C(O)c1cc(C(=O)O)c2c(n1)c1ncoc1c1cc(C(=O)O)[nH]c12", "note": "[OPQ, oxazopyrroloquinoline]", "values": [{"measurement": "Creatinine", "setting": "kidney; 40 mg/kg mouse intraperitoneally, Table 2, no administration 0.8", "result": 0.7, "unit": "mg/dL"}, {"measurement": "Urea nitrogen", "setting": "kidney; 40 mg/kg mouse intraperitoneally, Table 2, no administration 24", "result": 25, "unit": "mg/dL"}, {"measurement": "Glucose", "setting": "kidney; 40 mg/kg mouse intraperitoneally, Table 2, no administration 78", "result": 90, "unit": "mg/dL"}, {"measurement": "Creatinine", "setting": "kidney; 80 mg/kg mouse intraperitoneally, Table 2, no administration 0.8", "result": 0.8, "unit": "mg/dL"}, {"measurement": "Urea nitrogen", "setting": "kidney; 80 mg/kg mouse intraperitoneally, Table 2, no administration 24", "result": 23, "unit": "mg/dL"}, {"measurement": "Glucose", "setting": "kidney; 80 mg/kg mouse intraperitoneally, Table 2, no administration 78", "result": 86, "unit": "mg/dL"}, {"measurement": "Creatinine", "setting": "kidney; 150 mg/kg mouse intraperitoneally, Table 3, no administration 0.7", "result": 0.8, "unit": "mg/dL"}, {"measurement": "Urea nitrogen", "setting": "kidney; 150 mg/kg mouse intraperitoneally, Table 3, no administration 28", "result": 32, "unit": "mg/dL"}, {"measurement": "Glucose", "setting": "kidney; 150 mg/kg mouse intraperitoneally, Table 3, no administration 105", "result": 106, "unit": "mg/dL"}, {"measurement": "Creatinine", "setting": "kidney; 160 mg/kg mouse intraperitoneally, Table 2, no administration 0.8", "result": 0.7, "unit": "mg/dL"}, {"measurement": "Urea nitrogen", "setting": "kidney; 160 mg/kg mouse intraperitoneally, Table 2, no administration 24", "result": 27, "unit": "mg/dL"}, {"measurement": "Glucose", "setting": "kidney; 160 mg/kg mouse intraperitoneally, Table 2, no administration 78", "result": 90, "unit": "mg/dL"}, {"measurement": "Creatinine", "setting": "kidney; 200 mg/kg mouse intraperitoneally, Table 2, no administration 0.8", "result": 0.8, "unit": "mg/dL"}, {"measurement": "Urea nitrogen", "setting": "kidney; 200 mg/kg mouse intraperitoneally, Table 2, no administration 24", "result": 28, "unit": "mg/dL"}, {"measurement": "Glucose", "setting": "kidney; 200 mg/kg mouse intraperitoneally, Table 2, no administration 78", "result": 85, "unit": "mg/dL"}, {"measurement": "Creatinine", "setting": "kidney; 300 mg/kg mouse intraperitoneally, Table 3, no administration 0.7", "result": 0.8, "unit": "mg/dL"}, {"measurement": "Urea nitrogen", "setting": "kidney; 300 mg/kg mouse intraperitoneally, Table 3, no administration 28", "result": 29, "unit": "mg/dL"}, {"measurement": "Glucose", "setting": "kidney; 300 mg/kg mouse intraperitoneally, Table 3, no administration 105", "result": 80, "unit": "mg/dL"}, {"measurement": "Creatinine", "setting": "kidney; 400 mg/kg mouse intraperitoneally, Table 3, no administration 0.7", "result": 0.8, "unit": "mg/dL"}, {"measurement": "Urea nitrogen", "setting": "kidney; 400 mg/kg mouse intraperitoneally, Table 3, no administration 28", "result": 30, "unit": "mg/dL"}, {"measurement": "Glucose", "setting": "kidney; 400 mg/kg mouse intraperitoneally, Table 3, no administration 105", "result": 94, "unit": "mg/dL"}, {"measurement": "Creatinine", "setting": "kidney; 600 mg/kg mouse intraperitoneally, Table 3, no administration 0.7", "result": 0.8, "unit": "mg/dL"}, {"measurement": "Urea nitrogen", "setting": "kidney; 600 mg/kg mouse intraperitoneally, Table 3, no administration 28", "result": 34, "unit": "mg/dL"}, {"measurement": "Glucose", "setting": "kidney; 600 mg/kg mouse intraperitoneally, Table 3, no administration 105", "result": 74, "unit": "mg/dL"}, {"measurement": "GPT", "setting": "[1]; 2 mg/kg rat twice intraperitoneally, serum after 24 hours", "result": 1057, "unit": "U/l"}, {"measurement": "Total bilirubin", "setting": "[1]; [3]", "result": 1.2, "unit": "mg/dL"}, {"measurement": "GOT", "setting": "[1]; [3]", "result": 2402, "unit": "U/l"}, {"measurement": "Total bilirubin", "setting": "[1]; [4]", "result": 1.2, "unit": "mg/dL"}, {"measurement": "GPT", "setting": "[1]; [4]", "result": 553, "unit": "U/l"}, {"measurement": "GOT", "setting": "[1]; [4]", "result": 1892, "unit": "U/l"}, {"measurement": "Total bilirubin", "setting": "[1]; [5]", "result": 1.1, "unit": "mg/dL"}, {"measurement": "GPT", "setting": "[1]; [5]", "result": 650, "unit": "U/l"}, {"measurement": "GOT", "setting": "[1]; [5]", "result": 1907, "unit": "U/l"}, {"measurement": "Relative activity (%)", "setting": "T cell; 0.5 µg/ml added to culture", "result": 146, "unit": "%"}, {"measurement": "intake amount (cpm) of ^3H", "setting": "T cell; 0.5 µg/ml added to culture, concanavalin 0 µg/ml, without compound 2077", "result": 1946, "unit": "cpm"}, {"measurement": "intake amount (cpm) of ^3H", "setting": "T cell; 0.5 µg/ml added to culture, concanavalin 1.0 µg/ml, without compound 89091", "result": 130775, "unit": "cpm"}, {"measurement": "Relative activity (%)", "setting": "T cell; 2.0 µg/ml added to culture", "result": 130, "unit": "%"}, {"measurement": "intake amount (cpm) of ^3H", "setting": "T cell; 2.0 µg/ml added to culture, concanavalin 0 µg/ml, without compound 2077", "result": 2031, "unit": "cpm"}, {"measurement": "intake amount (cpm) of ^3H", "setting": "T cell; 2.0 µg/ml added to culture, concanavalin 1.0 µg/ml, without compound 89091", "result": 116093, "unit": "cpm"}, {"measurement": "inhibition at 0.1 µM", "setting": "[2]; concentration 1x10^-7 M", "result": 51.9, "unit": "%"}, {"measurement": "inhibition at 0.2 µM", "setting": "[2]; concentration 2x10^-7 M", "result": 62.1, "unit": "%"}, {"measurement": "inhibition at 0.05 µM", "setting": "[2]; concentration 5x10^-8 M", "result": 39.3, "unit": "%"}]}
